Assay results taken from US8334382B2, “Substituted biaryl piperazinyl-pyridine analogues” (Neurogen Corporation, priority 2004, dated 2012).

What follows are compounds tested against T1, human capsaicin receptor (Homo sapiens, UniProt Q8NER1) (assay: Calcium mobilization assay, determination of antagonist activity). Conditions: capsaicin at EC50; cells expressing human capsaicin receptor; Example 6.
T1 construct: expressed in transfected cells; host or cells: HEK293, stably transfected with pBK-CMV construct
T1 sequence (Q8NER1 whole entry): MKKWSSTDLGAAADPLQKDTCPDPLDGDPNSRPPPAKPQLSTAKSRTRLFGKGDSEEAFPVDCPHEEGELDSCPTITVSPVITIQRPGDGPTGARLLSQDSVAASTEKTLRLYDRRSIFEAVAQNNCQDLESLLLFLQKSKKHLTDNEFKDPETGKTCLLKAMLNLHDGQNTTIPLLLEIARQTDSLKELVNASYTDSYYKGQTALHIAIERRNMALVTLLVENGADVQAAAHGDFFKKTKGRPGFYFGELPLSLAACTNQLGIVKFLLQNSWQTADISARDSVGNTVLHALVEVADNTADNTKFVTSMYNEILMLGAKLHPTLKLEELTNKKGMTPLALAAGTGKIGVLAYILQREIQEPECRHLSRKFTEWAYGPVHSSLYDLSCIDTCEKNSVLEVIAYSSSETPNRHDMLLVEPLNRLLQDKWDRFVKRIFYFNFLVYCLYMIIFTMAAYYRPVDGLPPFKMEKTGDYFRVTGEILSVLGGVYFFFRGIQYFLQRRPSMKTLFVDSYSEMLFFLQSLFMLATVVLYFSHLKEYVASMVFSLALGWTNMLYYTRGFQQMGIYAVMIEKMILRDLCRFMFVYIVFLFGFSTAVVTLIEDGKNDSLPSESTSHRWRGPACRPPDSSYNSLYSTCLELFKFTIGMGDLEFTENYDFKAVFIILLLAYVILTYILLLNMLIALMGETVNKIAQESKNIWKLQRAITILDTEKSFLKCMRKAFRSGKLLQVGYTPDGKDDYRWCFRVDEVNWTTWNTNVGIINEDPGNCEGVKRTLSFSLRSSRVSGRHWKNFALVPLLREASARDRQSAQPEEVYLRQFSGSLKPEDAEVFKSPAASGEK
Format: cell-based
In short: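 HEK293 cells stably expressing full-length human TRPV1, loaded with Fluo-3 AM in KRH buffer pH 7.4, preincubated with compound (final 1-5 µM) in the dark at room temperature for 0.5-6 h, then stimulated with capsaicin at its EC50. FLIPR fluorescence gave IC50 as concentration halving the capsaicin response.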

IC50, ≤ 1000 nM:
Cc1ccc(C(N)=O)nc1N1CCN(c2cc(-c3ccc(F)cc3)nc(N3CCC[C@H]3C)n2)[C@H](C)C1 [Example 145, 6-{4-[6-(4-Fluoro-phenyl)-2-(2-(R)-methyl-pyrrolidin-1-yl)-pyrimidin-4-yl]-3-(R)-methyl-piperazin-1-yl}-5-methyl-pyridine-2-carboxylic acid amide]
C[C@@H]1CN(c2ncc(CO)cc2Cl)CCN1c1cc(-c2ccc(F)c(Cl)c2)nc(N2CCC[C@H]2C)n1 [Example 146, (5-Chloro-6-{4-[6-(3-chloro-4-fluoro-phenyl)-2-(2-(R)-methyl-pyrrolidin-1-yl)-pyrimidin-4-yl]-3-(R)-methyl-piperazin-1-yl}-pyridin-3-yl)-methanol]
CC1CCCN1c1nc(-c2ccc(F)cc2)cc(N2CCN(c3ncc(C(C)(C)O)cc3Cl)CC2)n1 (stereo not drawn) [Example 147, 2-(5-Chloro-6-{4-[6-(4-fluoro-phenyl)-2-(2-methyl-pyrrolidin-1-yl)-pyrimidin-4-yl]-piperazin-1-yl}-pyridin-3-yl)-propan-2-ol]
CC(O)c1cnc(N2CCN(c3cc(-c4ccc(F)cc4)nc(N4CCCC4C)n3)CC2)c(Cl)c1 (stereo not drawn) [Example 148, l-(5-Chloro-6-{4-[6-(4-fluoro-phenyl)-2-(2-methyl-pyrrolidin-1-yl)-pyrimidin-4-yl]-piperazin-1-yl}-pyridin-3-yl)-ethanol]
C[C@@H]1CN(c2ncc(C(=O)NCCO)cc2Cl)CCN1c1cc(-c2ccc(F)c(Cl)c2)nc(N2CCC[C@H]2C)n1 [Example 149, 5-Chloro-6-{4-[6-(3-chloro-4-fluoro-phenyl)-2-(2-(R)-methyl-pyrrolidin-1-yl)-pyrimidin-4-yl]-3-(R)-methyl-piperazin-1-yl}-N-(2-hydroxy-ethyl)-nicotinamide]
Cc1cc(C(=O)O)cnc1N1CCN(c2cc(-c3ccc(F)cc3)nc(N3CCOC[C@H]3C)n2)[C@H](C)C1 [Example 150, 6-{4-[6-(4-Fluoro-phenyl)-2-(3-(R)-methyl-morpholin-4-yl)-pyrimidin-4-yl]-3-(R)-methyl-piperazin-1-yl}-5-methyl-nicotinic acid]
Cc1cc(C(=O)O)cnc1N1CCN(c2cc(-c3ccc(F)cc3)nc(N3CCC[C@H]3CO)n2)[C@H](C)C1 [Example 151, 6-{4-[6-(4-Fluoro-phenyl)-2-(2-(S)-hydroxymethyl-pyrrolidin-l-yl)-pyrimidin-4-yl]-3-(R)-methyl-piperazin-1-yl}-5-methyl-nicotinic acid]
CC1CCCN1c1nc(-c2ccc(F)cc2)cc(N2CCN(c3ncc(CC(N)=O)cc3Cl)CC2)n1 (stereo not drawn) [Example 152, 2-(5-Chloro-6-{4-[6-(4-fluoro-phenyl)-2-(2-methyl-pyrrolidin-1-yl)-pyrimidin-4-yl]-piperazin-1-yl}-pyridin-3-yl)-acetamide]
Cc1cc(C(=O)O)cnc1N1CCN(c2cc(-c3ccc(F)cc3)nc(N(C)C(C)C)n2)[C@H](C)C1 [Example 153, 6-{4-[6-(4-Fluoro-phenyl)-2-(isopropyl-methyl-amino)-pyrimidin-4-yl]-3-(R)-methyl-piperazin-1-yl}-5-methyl-nicotinic acid]
Cc1cc(C(=O)O)cnc1N1CCN(c2cc(-c3ccc(F)c(Cl)c3)nc(N3CCC[C@H]3C)n2)[C@H](C)C1 [Example 154, 6-{4-[6-(3-Chloro-4-fluoro-phenyl)-2-(2-(R)-methyl-pyrrolidin-1-yl)-pyrimidin-4-yl]-3-(R)-methyl-piperazin-1-yl}-5-methyl-nicotinic acid]
C[C@@H]1CN(c2ncc(C(=O)N3CCC[C@H]3CO)cc2Cl)CCN1c1cc(-c2ccc(F)cc2)nc(N2CCC[C@H]2CO)n1 [Example 155, (5-Chloro-6-{4-[6-(4-fluoro-phenyl)-2-(2-(S)-hydroxymethyl-pyrrolidin-1-yl)-pyrimidin-4-yl]-3-(R)-methyl-piperazin-1-yl}-pyridin-3-yl)-(2-(S)-hydroxymethyl-pyrrolidin-1-yl)-methanone]
C[C@@H]1CN(c2ncc(C(=O)O)cc2Cl)CCN1c1cc(-c2ccc(F)cc2)nc(N2CCC[C@H]2CO)n1 [Example 156, 5-Chloro-6-{4-[6-(4-fluoro-phenyl)-2-(2-(S)-hydroxymethyl-pyrrolidin-1-yl)-pyrimidin-4-yl]-3-(R)-methyl-piperazin-1-yl}-nicotinic acid]
CC(C)N(C)c1nc(-c2ccc(F)cc2)cc(N2CCN(c3ncc(C(=O)O)cc3Cl)C[C@H]2C)n1 [Example 157, 5-Chloro-6-{4-[6-(4-fluoro-phenyl)-2-(isopropyl-methyl-amino)-pyrimidin-4-yl]-3-(R)-methyl-piperazin-1-yl}-nicotinic acid]
O=C(O)c1cnc(N2CCN(c3cc(-c4ccc(F)cc4)nc(N4CCC[C@H]4CO)n3)CC2)c(Cl)c1 [Example 158, 5-Chloro-6-{4-[6-(4-fluoro-phenyl)-2-(2-(S)-hydroxymethyl-pyrrolidin-1-yl)-pyrimidin-4-yl]-piperazin-1-yl}-nicotinic acid]
C[C@@H]1COCCN1c1nc(-c2ccc(F)cc2)cc(N2CCN(c3ncc(C(=O)O)cc3Cl)CC2)n1 [Example 159, 5-Chloro-6-{4-[6-(4-fluoro-phenyl)-2-(3-(R)-methyl-morpholin-4-yl)-pyrimidin-4-yl]-piperazin-1-yl}-nicotinic acid]
CC(C)N(C)c1nc(-c2ccc(F)cc2)cc(N2CCN(c3ncc(C(=O)O)cc3Cl)CC2)n1 [Example 160, 5-Chloro-6-{4-[6-(4-fluoro-phenyl)-2-(isopropyl-methyl-amino)-pyrimidin-4-yl]-piperazin-1-yl}-nicotinic acid]
Cc1cc(C(=O)O)cnc1N1CCN(c2cc(-c3ccc(F)c(Cl)c3)nc(N(C)C(C)C)n2)CC1 [Example 161, 6-{4-[6-(3-Chloro-4-fluoro-phenyl)-2-(isopropyl-methyl-amino)-pyrimidin-4-yl] - piperazin-1-yl}-5-methyl-nicotinic acid]
Cc1cc(-c2ncco2)cnc1N1CCN(c2cc(-c3ccc(F)cc3)nc(N3CCC[C@H]3C)n2)[C@H](C)C1 [Example 162, 4-(4-Fluoro-phenyl)-6-[2-(R)-methyl-4-(3-methyl-5-oxazol-2-yl-pyridin-2-yl)-piperazin-1-yl]-2-(2-(R)-methyl-pyrrolidin-1-yl)-pyrimidine]
C[C@@H]1CN(c2ncc(C(=O)O)cc2Cl)CCN1c1cc(-c2ccccc2)nc(N2CCC[C@H]2CO)n1 [Example 163, 5-Chloro-6-{4-[2-(2-(S)-hydroxymethyl-pyrrolidin-1-yl)-6-phenyl-pyrimidin-4-yl]-3-(R)-methyl-piperazin-1-yl}-nicotinic acid]
Cc1cc(-c2nnn[nH]2)cnc1N1CCN(c2cc(-c3ccc(F)cc3)nc(N3CCC[C@H]3C)n2)[C@H](C)C1 [Example 164, 4-(4-Fluoro-phenyl)-6-{2-(R)-methyl-4-[3-methyl-5-(1H-tetrazol-5-yl)-pyridin-2-yl]-piperazin-1-yl}-2-(2-(R)-methyl-pyrrolidin-1-yl)-pyrimidine]
C[C@@H]1CN(c2ncc(C(N)=O)cc2Cl)CCN1c1cc(-c2ccccc2)nc(N2CCC[C@H]2CO)n1 [Example 165, 5-Chloro-6-{4-[2-(2-(S)-hydroxymethyl-pyrrolidin-1-yl)-6-phenyl-pyrimidin-4-yl]-3-(R)-methyl-piperazin-1-yl}-nicotinamide]
C[C@@H]1CN(c2ncc(C(=O)NCCO)cc2Cl)CCN1c1cc(-c2ccccc2)nc(N2CCC[C@H]2CO)n1 [Example 166, 5-Chloro-N-(2-hydroxy-ethyl)-6-{4-[2-(2-(S)-hydroxymethyl-pyrrolidin-1-yl)-6-phenyl-pyrimidin-4-yl]-3-(R)-methyl-piperazin-1-yl}-nicotinamide]
C[C@@H]1CN(c2ncc(C(=O)NCCO)cc2Cl)CCN1c1cc(-c2ccccc2)nc(N2CCC[C@H]2C)n1 [Example 167, 5-Chloro-N-(2-hydroxy-ethyl)-6-{3-(R)-methyl-4-[2-(2-(R)-methyl-pyrrolidin-1-yl)-6-phenyl-pyrimidin-4-yl]-piperazin-1-yl}-nicotinamide]
Cc1ccc(-c2cc(N3CCN(c4ncc(C(=O)O)cc4C)C[C@H]3C)nc(N3CCCC3C)n2)cc1 (stereo partly drawn) [Example 168, 5-Methyl-6-{3-(R)-methyl-4-[2-(2-methyl-pyrrolidin-1-yl)-6-p-tolyl-pyrimidin-4-yl]-piperazin-1-yl}-nicotinic acid]
Cc1cc(-c2ncc[nH]2)cnc1N1CCN(c2cc(-c3ccc(F)cc3)nc(N3CCC[C@H]3C)n2)[C@H](C)C1 [Example 169, 4-(4-Fluoro-phenyl)-6-{4-[5-(1H-imidazol-2-yl)-3-methyl-pyridin-2-yl]-2-(R)-methyl-piperazin-1-yl}-2-(2-(R)-methyl-pyrrolidin-1-yl)-pyrimidine]
Cc1cc(C(=O)O)cnc1N1CCN(c2cc(-c3ccc(F)cc3)nc(N3CCC[C@H]3C)n2)[C@@H](C)C1 [Example 170, 6-{4-[6-(4-Fluoro-phenyl)-2-(2-(R)-methyl-pyrrolidin-1-yl)-pyrimidin-4-yl]-3-(S)-methyl-piperazin-1-yl}-5-methyl-nicotinic acid]
Cc1ccc(-c2cc(N3CCN(c4ncc(C(=O)NCCO)cc4C)C[C@H]3C)nc(N3CCCC3C)n2)cn1 (stereo partly drawn) [Example 171, N-(2-Hydroxy-ethyl)-5-methyl-6-{3-(R)-methyl-4-[6-(6-methyl-pyridin-3-yl)-2-(2-methyl-pyrrolidin-1-yl)-pyrimidin-4-yl]-piperazin-1-yl}-nicotinamide]
